Measured values as given in ChEMBL document CHEMBL1201862, “PubChem BioAssay data set” (2004).
Several values for one entry are separate records, joined by “and”; a condition that tells them apart may be missing. Identical values can stand only once. Activity calls are given as the source filed them.

What was measured:
[1] = P. falciparum Dd2 growth inhibitors, dose response, SYBR Green, cherry-picked samples (AID 1159567); type: functional, cell-based
[2] = biological target: T1, Cytochrome P450 1A2 (Homo sapiens, UniProt P05177);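 note: PubChem cytochrome P450 panel assay, CYP1A2 panel member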
T1 sequence (P05177 whole entry): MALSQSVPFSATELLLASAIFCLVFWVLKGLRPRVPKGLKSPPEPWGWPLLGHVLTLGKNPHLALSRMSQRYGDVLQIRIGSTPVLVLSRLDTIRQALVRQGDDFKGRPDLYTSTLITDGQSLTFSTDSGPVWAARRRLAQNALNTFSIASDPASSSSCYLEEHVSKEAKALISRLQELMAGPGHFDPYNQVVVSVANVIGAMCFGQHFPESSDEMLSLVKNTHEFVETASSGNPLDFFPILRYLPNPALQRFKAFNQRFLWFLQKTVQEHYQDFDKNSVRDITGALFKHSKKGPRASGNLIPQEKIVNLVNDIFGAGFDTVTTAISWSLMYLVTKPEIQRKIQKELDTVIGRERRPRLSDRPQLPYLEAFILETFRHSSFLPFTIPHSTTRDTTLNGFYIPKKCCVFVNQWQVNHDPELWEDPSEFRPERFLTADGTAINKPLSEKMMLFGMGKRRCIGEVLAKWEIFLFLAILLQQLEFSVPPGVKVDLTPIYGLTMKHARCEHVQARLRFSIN

[3] = biological target: T2, Cytochrome P450 3A4 (Homo sapiens, UniProt P08684)
[4] = biological target: T3, Carboxy-terminal domain RNA polymerase II polypeptide A small phosphatase 1 (Homo sapiens, UniProt Q9GZU7); assay: inhibitors of CTDSP1, concentration-response testing, biochemical assay, absorbance-based, actives from ultra-high-throughput screening (AID 540297); type: functional
T3 sequence (Q9GZU7 whole entry): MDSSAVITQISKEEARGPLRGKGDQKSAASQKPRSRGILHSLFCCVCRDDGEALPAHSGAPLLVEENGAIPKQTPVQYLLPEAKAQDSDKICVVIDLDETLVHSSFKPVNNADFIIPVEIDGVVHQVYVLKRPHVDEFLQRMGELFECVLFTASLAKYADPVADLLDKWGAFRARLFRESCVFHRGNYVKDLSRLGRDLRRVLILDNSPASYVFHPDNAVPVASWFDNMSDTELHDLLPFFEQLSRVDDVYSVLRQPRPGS

[5] = inhibitors of intracellular T. cruzi replication, confirmation, NIH3T3 host cells, beta-gal luminescence (AID 2044); type: functional, cell-based;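 note: intracellular parasites grown in NIH/3T3 mouse fibroblasts as host cells; luminescent beta-galactosidase reporter signal from transgenic T. cruzi replicating inside host cells; inhibitors lower the luminescence signal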
[6] = cytotoxicity toward NIH3T3 fibroblasts, dose response, counter-screen, cell-based, ATP luminescence, mouse fibroblasts (AID 2010); type: functional;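 note: cells exposed to compound for about 90 hours before reading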
[7] = biological target: T2, Cytochrome P450 3A4; conditions: Potency
[8] = Luminescence Cell-Based Dose Retest to Confirm Inhibitors of Cancer Stem Cells. [Related pubchem assays (depositor defined):AID2717, AID2721]; type: functional; conditions: Homo sapiens
[9] = biological target: Voltage-gated inwardly rectifying potassium channel KCNH2 (Homo sapiens, UniProt Q12809); conditions: Potency;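 note: confirmatory quantitative high-throughput screen measuring inhibition of hERG channel activity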
[10] = biological target: T4, Ubiquitin-conjugating enzyme E2 N (Homo sapiens, UniProt P61088); type: functional;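 note: Dose-response confirmation in a TR-FRET assay detecting UBC13-driven polyubiquitin chain formation, inhibition measured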
T4 sequence (P61088 whole entry): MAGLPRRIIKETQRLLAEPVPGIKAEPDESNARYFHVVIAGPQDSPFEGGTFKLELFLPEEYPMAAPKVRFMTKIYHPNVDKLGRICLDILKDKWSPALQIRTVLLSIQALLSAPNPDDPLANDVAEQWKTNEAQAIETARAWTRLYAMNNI

[11] = biological target: T5, High affinity choline transporter 1 (Homo sapiens, UniProt Q9GZV3); assay: CHT inhibitors, dose response, cell-based, 5-point CRC, membrane potential dye (AID 504840); type: functional
T5 sequence (Q9GZV3 whole entry): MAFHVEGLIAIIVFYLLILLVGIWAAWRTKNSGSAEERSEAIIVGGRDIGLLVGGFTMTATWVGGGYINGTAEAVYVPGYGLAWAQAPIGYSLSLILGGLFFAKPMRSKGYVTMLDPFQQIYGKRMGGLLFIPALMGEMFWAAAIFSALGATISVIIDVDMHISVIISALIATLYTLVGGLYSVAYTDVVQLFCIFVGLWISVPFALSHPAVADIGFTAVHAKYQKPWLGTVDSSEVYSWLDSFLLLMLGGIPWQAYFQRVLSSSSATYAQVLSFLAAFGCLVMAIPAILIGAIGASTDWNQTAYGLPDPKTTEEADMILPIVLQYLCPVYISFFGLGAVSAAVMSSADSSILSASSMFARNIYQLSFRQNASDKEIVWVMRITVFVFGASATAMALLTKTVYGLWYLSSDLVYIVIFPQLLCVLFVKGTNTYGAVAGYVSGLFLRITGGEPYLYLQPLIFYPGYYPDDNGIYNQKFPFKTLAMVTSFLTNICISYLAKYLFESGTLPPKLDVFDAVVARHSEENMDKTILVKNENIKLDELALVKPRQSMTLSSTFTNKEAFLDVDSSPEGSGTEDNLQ

[12] = microbe, parasite or virus in culture; type: functional; conditions: Mycobacterium tuberculosis
[13] = biological target: Heat shock protein HSP 90-alpha (Homo sapiens, UniProt P07900); type: functional, organism-based
[14] = tested on: INS1; assay: beta cell apoptosis inhibitors, cytokine rescue, dose response, luminescence, retest (AID 449756); type: functional, cell-based; conditions: Rattus norvegicus;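 note: cell death triggered by IL-1 beta plus TNF-alpha plus IFN-gamma mixture; protective hits raise ATP signal compared with cytokine alone wells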
[15] = biological target: Cytochrome P450 2C9 (Homo sapiens, UniProt P11712)
[16] = THP-1 cell cytotoxicity, dose response, cytotoxicity control for Vif-APOBEC3G degradation inhibitor project, THP-1 cells (AID 1117359); type: functional; conditions: Human immunodeficiency virus 1, THP-1
[17] = biological target: Cytochrome P450 2D6 (Homo sapiens, UniProt P10635);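 note: CYP2D6 member of a cytochrome P450 panel assay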
[18] = biological target: Cytochrome P450 2C19 (Homo sapiens, UniProt P33261); assay: Cytochrome panel assay with activity outcomes. Panel member name: p450-cyp2c19 Compounds with AC50 equal or less than 10 uM are considered active; type: functional; conditions: read-out: AC50
[19] = tested on: Vero; assay: Vero cell cytotoxicity, cytotoxicity control for flavivirus capping enzyme inhibitors (AID 588742); type: functional; conditions: Chlorocebus sabaeus
[20] = Shn3 3'UTR reporter inhibitors, dose response, cell-based, Clone20 osteoblasts, firefly luciferase, cherry-picked (AID 624132); type: functional;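 note: firefly luciferase luminescence from reporter carrying the Shn3 3'UTR in osteoblasts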
[21] = tested on: HEK293; assay: inhibitors of LMP1-driven NF-kB reporter, dose response, cell-based, HEK293, luciferase, cherry-pick (AID 588343); type: functional; conditions: Homo sapiens
[22] = control 3'UTR Renilla luciferase suppression, dose response, counter-screen for Shn3 inhibitor project, cell-based, Clone20-Shn3RL, cherry-picked (AID 624133); type: functional
[23] = HepG2 cell cytotoxicity, dose response, cytotoxicity control for Shn3 inhibitor project, CellTiter-Glo, cherry-picked (AID 624134); type: functional, cell-based

Sequence of Voltage-gated inwardly rectifying potassium channel KCNH2 (Q12809 whole entry): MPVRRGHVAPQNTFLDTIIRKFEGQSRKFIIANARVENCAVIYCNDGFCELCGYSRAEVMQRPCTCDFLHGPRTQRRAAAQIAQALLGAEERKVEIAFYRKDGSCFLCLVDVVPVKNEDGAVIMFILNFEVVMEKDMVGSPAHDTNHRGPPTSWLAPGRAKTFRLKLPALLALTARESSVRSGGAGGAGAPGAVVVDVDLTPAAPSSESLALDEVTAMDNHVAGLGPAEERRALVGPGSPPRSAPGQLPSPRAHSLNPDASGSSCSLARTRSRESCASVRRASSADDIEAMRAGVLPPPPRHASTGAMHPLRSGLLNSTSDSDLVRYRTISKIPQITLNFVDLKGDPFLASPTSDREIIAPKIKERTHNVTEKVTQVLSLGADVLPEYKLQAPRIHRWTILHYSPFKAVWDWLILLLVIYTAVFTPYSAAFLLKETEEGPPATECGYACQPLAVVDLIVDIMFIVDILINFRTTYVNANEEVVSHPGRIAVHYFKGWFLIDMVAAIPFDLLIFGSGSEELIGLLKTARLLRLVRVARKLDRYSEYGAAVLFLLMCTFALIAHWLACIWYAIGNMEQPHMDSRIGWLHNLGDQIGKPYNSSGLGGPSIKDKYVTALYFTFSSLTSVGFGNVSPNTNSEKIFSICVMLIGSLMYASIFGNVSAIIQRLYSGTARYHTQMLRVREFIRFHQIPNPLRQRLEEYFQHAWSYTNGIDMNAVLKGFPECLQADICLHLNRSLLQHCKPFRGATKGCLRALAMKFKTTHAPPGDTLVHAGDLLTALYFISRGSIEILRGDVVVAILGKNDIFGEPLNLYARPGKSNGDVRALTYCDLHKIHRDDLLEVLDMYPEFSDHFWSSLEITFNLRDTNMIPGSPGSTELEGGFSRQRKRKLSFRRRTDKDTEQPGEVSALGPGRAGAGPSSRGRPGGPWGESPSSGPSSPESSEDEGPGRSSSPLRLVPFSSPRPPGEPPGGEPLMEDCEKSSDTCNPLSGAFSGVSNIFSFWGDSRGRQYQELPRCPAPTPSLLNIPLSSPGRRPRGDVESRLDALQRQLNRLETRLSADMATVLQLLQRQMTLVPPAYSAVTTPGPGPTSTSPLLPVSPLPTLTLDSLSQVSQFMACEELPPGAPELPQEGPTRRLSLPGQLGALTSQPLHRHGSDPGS
T2 sequence (P08684 whole entry, the tested form may be a part): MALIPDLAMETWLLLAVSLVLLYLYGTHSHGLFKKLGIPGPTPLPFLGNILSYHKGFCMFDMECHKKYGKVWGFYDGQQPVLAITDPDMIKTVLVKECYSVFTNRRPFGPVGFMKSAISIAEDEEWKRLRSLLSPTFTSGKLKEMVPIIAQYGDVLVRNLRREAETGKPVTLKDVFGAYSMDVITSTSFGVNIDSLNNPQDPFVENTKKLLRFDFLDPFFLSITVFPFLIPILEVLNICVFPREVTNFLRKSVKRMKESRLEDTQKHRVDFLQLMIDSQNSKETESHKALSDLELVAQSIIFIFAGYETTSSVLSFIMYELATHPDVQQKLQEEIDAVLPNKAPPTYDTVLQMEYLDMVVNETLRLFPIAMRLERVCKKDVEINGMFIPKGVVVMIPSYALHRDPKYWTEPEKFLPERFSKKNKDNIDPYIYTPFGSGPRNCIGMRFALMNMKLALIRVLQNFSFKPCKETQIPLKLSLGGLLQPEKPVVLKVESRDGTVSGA
Sequence of Cytochrome P450 2D6 (P10635 whole entry): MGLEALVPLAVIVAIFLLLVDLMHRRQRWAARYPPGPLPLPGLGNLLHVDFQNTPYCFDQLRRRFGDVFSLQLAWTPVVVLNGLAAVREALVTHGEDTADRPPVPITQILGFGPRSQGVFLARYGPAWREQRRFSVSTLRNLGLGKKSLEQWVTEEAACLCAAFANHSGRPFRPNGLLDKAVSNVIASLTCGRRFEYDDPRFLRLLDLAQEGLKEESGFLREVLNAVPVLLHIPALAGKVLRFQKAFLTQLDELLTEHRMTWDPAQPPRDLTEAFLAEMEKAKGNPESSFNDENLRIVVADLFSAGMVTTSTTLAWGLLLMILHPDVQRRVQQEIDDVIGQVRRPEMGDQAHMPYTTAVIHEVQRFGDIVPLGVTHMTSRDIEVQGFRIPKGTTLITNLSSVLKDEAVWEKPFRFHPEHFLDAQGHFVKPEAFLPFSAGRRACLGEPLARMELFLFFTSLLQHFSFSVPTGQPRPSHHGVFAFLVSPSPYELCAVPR
Sequence of Cytochrome P450 2C9 (P11712 whole entry): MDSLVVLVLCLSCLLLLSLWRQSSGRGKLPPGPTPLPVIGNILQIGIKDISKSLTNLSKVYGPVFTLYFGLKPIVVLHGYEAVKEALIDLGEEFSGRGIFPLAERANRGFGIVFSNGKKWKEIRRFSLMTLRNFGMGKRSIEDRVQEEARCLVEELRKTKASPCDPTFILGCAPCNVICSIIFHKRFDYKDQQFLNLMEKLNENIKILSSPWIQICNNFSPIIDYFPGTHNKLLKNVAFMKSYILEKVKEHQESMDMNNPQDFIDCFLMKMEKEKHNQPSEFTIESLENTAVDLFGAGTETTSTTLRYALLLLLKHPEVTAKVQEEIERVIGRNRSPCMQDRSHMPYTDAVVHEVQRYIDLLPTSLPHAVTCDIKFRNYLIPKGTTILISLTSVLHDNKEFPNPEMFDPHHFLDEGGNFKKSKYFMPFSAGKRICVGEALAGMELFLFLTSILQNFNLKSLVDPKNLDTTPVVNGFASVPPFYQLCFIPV
Sequence of Cytochrome P450 2C19 (P33261 whole entry): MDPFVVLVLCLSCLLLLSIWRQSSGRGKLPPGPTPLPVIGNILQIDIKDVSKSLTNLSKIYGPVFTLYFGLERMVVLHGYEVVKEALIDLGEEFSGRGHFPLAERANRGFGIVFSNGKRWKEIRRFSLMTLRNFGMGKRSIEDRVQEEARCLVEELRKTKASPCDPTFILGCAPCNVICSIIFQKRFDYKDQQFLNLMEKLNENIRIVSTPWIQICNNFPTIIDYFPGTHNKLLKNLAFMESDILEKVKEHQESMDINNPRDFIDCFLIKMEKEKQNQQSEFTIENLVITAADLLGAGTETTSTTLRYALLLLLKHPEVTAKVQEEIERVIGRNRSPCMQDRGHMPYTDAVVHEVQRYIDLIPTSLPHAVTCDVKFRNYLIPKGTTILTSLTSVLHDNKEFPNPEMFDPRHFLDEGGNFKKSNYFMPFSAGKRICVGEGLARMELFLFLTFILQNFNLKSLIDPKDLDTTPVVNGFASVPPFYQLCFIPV

## CCCNC[C@H]1[C@@H](c2ccc(C3=CCCCC3)cc2)[C@@H](CO)N1C(=O)C1CCC1
[1]
  AC50: 4.2 µM (active)

## N#Cc1cccc(NC(=O)N2CC3(CCN(C(=O)c4cnccn4)CC3)C2)c1
[2]
  AC50: 39.8 µM (inconclusive)
[3]
  AC50: inconclusive

## O=C(COc1ccc([N+](=O)[O-])cc1)Nc1ccc(C(=O)Nc2ccccc2C(=O)O)cc1
[4]
  IC50: 12.3 µM (active)

## N#Cc1c(N2CCN(C(=O)c3ccccc3Cl)CC2)nc(-c2ccccc2)c2c1CCCC2
[3]
  AC50: inconclusive
[5]
  EC50: 2.36 µM (active)
[6]
  EC50: > 60 µM (not active)

## COc1ccc(-c2coc3ccc(OC4OC(COC(C)=O)C(OC(C)=O)C(OC(C)=O)C4OC(C)=O)cc3c2=O)cc1 (centres undefined)
[7]
  AC50: 1.58 µM (inconclusive)

## ClC1=C(Cl)C2(Cl)C3C(Cl)C=CC3C1(Cl)C2(Cl)Cl (centres undefined) [HEPTACHLOR]
[8]
  AC50: 6.1 µM (active)
[9]
  AC50: 31.6 µM (inconclusive)

## CC(=O)OCC1=C(C(=O)O)N2C(=O)[C@@H](NC(=O)Cc3cccs3)[C@H]2SC1 [CEPHALOTHIN]
[4]
  IC50: 2.79 µM (active)

## CCOC(=O)c1c(CN2CCCCC2)oc2ccc(O)cc12
[10]
  IC50: > 20 µM (inactive)

## COc1ccc2c3c([nH]c2c1)[C@H](CO)N(Cc1ccccc1Cl)CC31CCN(C(C)=O)CC1
[1]
  AC50: 2.8 µM (active)

## Cc1cccc(OCCCC(=O)NNC(=O)c2ccccn2)c1
[10]
  IC50: > 20 µM (inactive)

## CCCCNc1nc(C)nc2c1nc(C)n2CCC
[7]
  AC50: 31.6 µM (inconclusive)

## COc1ccc(OCC(=O)OCCN(C)C)cc1
[11]
  IC50: 14.5 µM (active)

## Clc1ccc(C(Cn2ccnc2)OCc2csc3c(Cl)cccc23)c(Cl)c1 (centres undefined) [SERTACONAZOLE NITRATE]
[12]
  CC50: 24.4 µM (active)
[13]
  AC50: 0.233 µM (active)
[8]
  AC50: 1.85 µM (active)
[14]
  AC50: 10 µM (active)

## O=NN(O)c1ccccc1
[7]
  AC50: 31.6 µM (inconclusive)

## Cc1nc(Nc2ccccc2)c2nc(-c3ccccc3)n(CCCN3CCCCC3C)c2n1 (centres undefined)
[7]
  AC50: 12.6 µM (inconclusive)

## O=C(CCCCCCCCC(=O)N/N=C/c1ccco1)N/N=C/c1ccco1
[4]
  IC50: 11.5 µM (active)

## COC(=O)C1=C(C)N(Cc2ccccc2)c2c(C(=O)OC)c(C(=O)OC)c(C(=O)OC)c(=O)n2C1c1ccccc1 (centres undefined)
[7]
  AC50: 5.01 µM (inconclusive) and 3.98 µM (inconclusive)

## CCCn1nnc(NC(=O)Cc2ccccc2)n1
[2]
  AC50: 28.2 µM (inconclusive)
[15]
  AC50: 0.00562 µM (inconclusive)
[3]
  AC50: inconclusive

## COc1ccc(-c2cc(C(=O)N(C)CC(=O)Nc3ccccc3Br)c3ccccc3n2)cc1OC
[16]
  CC50: > 40 µM (active)

## Cc1c(C(=O)O)c(O)cc2c1C(=O)c1c(O)c([C@H]3O[C@H](CO)[C@@H](O)[C@H](O)[C@H]3O)c(O)c(O)c1C2=O [CARMINE]
[9]
  AC50: 79.4 µM (inconclusive)

## CC[C@H](NC(=O)c1c(C)c(-c2ccccc2)nc2ccccc12)c1ccccc1 [SB-222200]
[9]
  AC50: 35.5 µM (inconclusive)

## O=[N+]([O-])c1ccc(CSc2ncnc3c2ncn3[C@@H]2O[C@H](CO)[C@H](O)[C@H]2O)cc1
[9]
  AC50: 35.5 µM (inconclusive)

## CCCN(CCC)CCNC(=O)c1cc2c(=O)n(CC)c3ccccc3c2s1
[10]
  IC50: > 20 µM (inactive)

## Cc1noc(C)c1C(=O)N1CCC2(CCN(C(=O)Nc3ccccc3)CC2)CC1
[3]
  AC50: inconclusive
[17]
  AC50: 12.6 µM (inconclusive)

## CCc1ccc(C(=O)Nc2cccnc2Oc2ccc(Cl)cc2)cc1
[16]
  CC50: 18.4 µM (active)

## CCN(CC)CCNC(C(=O)Nc1cc(C(F)(F)F)ccc1Cl)c1ccccc1 (centres undefined)
[4]
  IC50: 9.32 µM (active)

## COc1ccc2c3c([nH]c2c1)[C@@H](CO)N(Cc1cc(F)ccc1F)CC31CCN(C(=O)C2CCC2)CC1
[1]
  AC50: 3.77 µM (active)

## COC(=O)C1(C)C=CC2(CCCCC2)N1C(C)=O (centres undefined)
[7]
  AC50: 15.8 µM (inconclusive)

## CCC/N=C/c1c(CCC)nn(-c2nc3ccccc3s2)c1O
[3]
  AC50: inconclusive
[18]
  AC50: 20 µM (inconclusive)
[17]
  AC50: 25.1 µM (inconclusive)

## CCCC(=O)Nc1ccc2c(c1)OC[C@H](C)N(Cc1ccc(-c3ccccn3)cc1)C[C@H](C)[C@H](OC)CN(C)C2=O
[1]
  AC50: 4.66 µM (active)

## CC(SCc1ccccc1)C(=O)N/N=C/c1ccc(OCC(=O)NCc2ccco2)cc1 (centres undefined)
[11]
  IC50: 2 µM (active)

## Sc1nnc(-c2ccco2)n1/N=C/C=C/c1ccco1
[19]
  CC50: > 40 µM (active)

## O=C(c1nc2ccc(Cl)cn2c1CN1CCCC1)N1CCc2ccccc2C1
[4]
  IC50: 17.5 µM (active)

## Cc1ccc2nsnc2c1S(=O)(=O)N1CCN(CCc2ccccc2)CC1
[11]
  IC50: 11.8 µM (active)

## COc1ccc(NC(=O)c2sc3ncnc(N4CCN(c5ccccn5)CC4)c3c2C)cc1Cl
[13]
  AC50: 6.41 µM (active)
[20]
  AC50: 4.08 µM (active)
[21]
  AC50: 11.6 µM (active)
[22]
  AC50: 3.19 µM (active)
[23]
  AC50: > 70 µM (inactive)

## CC(C)N1CCN(c2ccc(OCC3COC(Cn4cncn4)(c4ccc(Cl)cc4Cl)O3)cc2)CC1 (centres undefined) [TERCONAZOLE]
[13]
  AC50: 2.19 µM (active)
[20]
  AC50: 52.1 µM (active)
[23]
  AC50: 21.2 µM (active)

## CCCCOC(=O)COc1ccc(Cl)cc1Cl
[9]
  AC50: 50.1 µM (inconclusive)

## COc1ccc(C#Cc2ccc([C@H]3[C@H]4CN(C(=O)Nc5ccccc5)CCCCN4[C@H]3CO)cc2)cc1
[1]
  AC50: 4.8 µM (active)

## O=C1CC[C@@]23/C=C/C(=O)NCCCCNCCCNC(=O)/C=C/c4ccc(c2c4)OC3C1 (some centres undefined)
[7]
  AC50: 39.8 µM (inconclusive)

## COCCN1CSC(=S)N(Cc2ccco2)C1
[21]
  AC50: 0.688 µM (active)

## CCCCOC1(c2ccccc2)OC(=O)c2ccccc21 (centres undefined)
[15]
  AC50: 17.8 µM (inconclusive)
[3]
  AC50: inconclusive

## CCCCCCN(C(=O)CCCCCN1C(=O)NC(c2ccc(C(C)(C)C)cc2)C(C(=O)OCc2ccccc2)=C1C)C(C(=O)NCCCC)c1ccc(OCC(=O)OC)c(C(=O)OC)c1 (centres undefined)
[16]
  CC50: 13.2 µM (active)

## O=C1COc2ccc(C(=O)COC(=O)/C=C/c3ccco3)cc2N1
[4]
  IC50: 13.4 µM (active)

## O=C1C2C3C=CC(CNS(=O)(=O)c4ccccc4)(O3)C2C(=O)N1c1ccc(Cl)cc1 (centres undefined)
[13]
  AC50: 7.09 µM (active)

## Cc1cc2nc(C)c(Cl)c(O)n2n1
[11]
  IC50: 13.2 µM (active)
